The values below are quoted from earlier work in PMC10202811 (Nature Medicine, 2023).

For one series, the system named is ALK-driven malignancies. Set-up: method as in PMID 34780709. The following applies: children, 6/30; cited from earlier work.
The subject of series [1] is inflammatory myofibroblastic tumors. The following applies: cited from earlier work.

Consider `Cc1cc(Nc2ncc(Cl)c(Nc3ccccc3S(=O)(=O)C(C)C)n2)c(OC(C)C)cc1C1CCNCC1` [ceritinib], for which the “RR (complete/partial)” value with ALK-driven malignancies is reported as 20%.

In the case of `C[C@@H](Oc1cc(-c2cnn(C3CCNCC3)c2)cnc1N)c1c(Cl)ccc(F)c1Cl` [crizotinib], the RR in series [1] is reported as 86%.
